In general, DC50 refers to the concentration giving 50% degradation. A word on the Dmax: it is the greatest extent of degradation seen.

SMILES strings stand for the structures. Where two headings read alike, the source gives them in different places.

The values below come from patent US20230265116A1, “DEGRADATION OF (EGFR) BY CONJUGATION OF EGFR INHIBITORS WITH E3 LIGASE LIGAND AND METHODS OF USE” (BEIGENE, LTD., priority 2020, published 2023).

Assay [1] concerns the target T1, EGFR L858R/T790M/C797S (BaF3-LTC cells) (Homo sapiens, UniProt P00533, C797S/L858R/T790M).
T1 construct: expressed in transfected cells; host or cells: BaF3
Put plainly: EGFR degradation HTRF assay, BaF3-LTC cells. It counts as cell-based. The method, boiled down:
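Cells treated 16 h at 37 °C, 5% CO2 in medium with 0.2% DMSO; top final concentration 10 uM, 5-fold dilution, 8 doses. Lysates read by HTRF (665/620 nm); degradation % versus DMSO high control, DC50 from four-parameter fit, Dmax as maximal degradation.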

Assay [2] relates to EGFR Del19/T790M/C797S (H1975-clone #28). Put plainly: EGFR degradation HTRF assay, H1975-clone #28 DTC cells. The class given is cell-based. The method, boiled down:
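H1975 clones stably overexpressing mutant EGFR, with endogenous EGFR knocked out by sgRNA and homozygosity confirmed by sequencing, were treated 16h at 37° C. with compounds in 0.2% DMSO (top final 10 uM, 5-fold, 8 doses). Lysates were read by HTRF (665/620 nm); DC50 and Dmax came from fitting % degradation versus DMSO control.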
A general note: Time-resolved FRET reads energy transfer from a long-lived donor to a nearby acceptor.

Where [3] appears, read: BaF3-LTC cells; EGFR degradation, IC50 (DC50) from curve fit; read-out: DC50(nM) BaF3-LTC.
The mark [4] stands for this setting: BaF3-LTC cells; maximum percentage of inhibition (degradation); read-out: Dmax (%) BaF3-LTC.
The mark [5] stands for this setting: H1975 # 28 DTC cells; EGFR degradation, IC50 (DC50) from curve fit; read-out: DC50(nM) H1975 # 28 DTC.
[6] abbreviates: H1975 # 28 DTC cells; maximum percentage of inhibition (degradation).

T1 sequence (P00533 25-1210 T790M/C797S/L858R): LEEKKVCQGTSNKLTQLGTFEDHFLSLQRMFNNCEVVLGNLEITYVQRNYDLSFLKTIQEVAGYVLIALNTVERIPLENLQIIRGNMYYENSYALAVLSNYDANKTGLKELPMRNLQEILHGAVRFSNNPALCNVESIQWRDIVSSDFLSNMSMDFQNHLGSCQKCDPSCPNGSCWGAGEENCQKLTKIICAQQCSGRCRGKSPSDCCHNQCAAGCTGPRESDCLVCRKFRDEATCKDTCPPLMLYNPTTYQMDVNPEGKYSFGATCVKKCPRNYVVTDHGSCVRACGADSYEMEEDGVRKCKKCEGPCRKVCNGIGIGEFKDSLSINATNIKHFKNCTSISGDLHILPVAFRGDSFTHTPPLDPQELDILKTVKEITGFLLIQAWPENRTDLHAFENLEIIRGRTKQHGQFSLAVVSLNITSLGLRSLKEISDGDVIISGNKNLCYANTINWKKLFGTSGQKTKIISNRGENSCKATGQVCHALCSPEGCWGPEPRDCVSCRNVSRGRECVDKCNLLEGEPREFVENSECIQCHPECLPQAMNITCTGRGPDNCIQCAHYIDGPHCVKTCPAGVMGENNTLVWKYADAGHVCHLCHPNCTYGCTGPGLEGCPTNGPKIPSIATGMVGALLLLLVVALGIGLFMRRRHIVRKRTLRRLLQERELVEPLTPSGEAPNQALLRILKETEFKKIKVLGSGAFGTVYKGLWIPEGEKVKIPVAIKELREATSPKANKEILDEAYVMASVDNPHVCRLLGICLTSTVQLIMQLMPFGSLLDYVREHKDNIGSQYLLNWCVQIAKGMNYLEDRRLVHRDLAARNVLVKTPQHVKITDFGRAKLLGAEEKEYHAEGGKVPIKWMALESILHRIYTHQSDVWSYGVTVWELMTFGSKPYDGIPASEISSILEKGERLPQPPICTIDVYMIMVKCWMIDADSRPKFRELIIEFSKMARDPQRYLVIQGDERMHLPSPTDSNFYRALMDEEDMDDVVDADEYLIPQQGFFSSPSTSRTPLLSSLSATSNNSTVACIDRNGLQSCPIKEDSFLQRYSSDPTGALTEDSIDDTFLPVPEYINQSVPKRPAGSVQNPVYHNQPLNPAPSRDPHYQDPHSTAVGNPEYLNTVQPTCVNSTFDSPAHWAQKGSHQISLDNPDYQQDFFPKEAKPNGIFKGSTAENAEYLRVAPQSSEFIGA

On to `CCOc1cc(N2CCC(N3CCN(CCCc4cc(C)cc5c4oc(=O)n5C4CCC(=O)NC4=O)CC3)CC2)c(CC)cc1Nc1ncc(Br)c(Nc2ccc3nc(CC)ccc3c2P(C)(C)=O)n1` (stereo not shown) [Example 636, 3-(7-(3-(4-(1-(4-((5-bromo-4-((5-(dimethylphosphoryl)-2-ethylquinolin-6-yl)amino)pyrimidin-2-yl)amino)-5-ethoxy-2-ethylphenyl)piperidin-4-yl)piperazin-1-yl)propyl)-5-methyl-2-oxobenzo[d]oxazol-3(2H)-yl)piperidine-2,6-dione], for which the DC50 in assay [1] (setting [3]) worked out at 11 nM; in assay [2] (setting [5]), 1.52 nM. The Dmax in assay [1] (setting [4]) worked out at 92.3%. Further, the “Dmax (%) H1975 # 28 DTC” value in assay [2] (setting [6]) was 79.04%.
The matching figures for `CCOc1cc(N2CCC(N3CCN(C(=O)COc4cccc5c4n(C)c(=O)n5C4CCC(=O)NC4=O)CC3)CC2)c(CC)cc1Nc1ncc(Br)c(Nc2ccc3nc(CC)ccc3c2P(C)(C)=O)n1` (stereo not shown) [Example 637, 3-(4-(2-(4-(1-(4-((5-bromo-4-((5-(dimethylphosphoryl)-2-ethylquinolin-6-yl)amino)pyrimidin-2-yl)amino)-5-ethoxy-2-ethylphenyl)piperidin-4-yl)piperazin-1-yl)-2-oxoethoxy)-3-methyl-2-oxo-2,3-dihydro-1H-benzo[d]imidazol-1-yl)piperidine-2,6-dione]: 5.39 nM, 0.354 nM, 92.9% and 69.46%.
As for `CCOc1cc(N2CCC(N3CCN(C(=O)CN4CCN(c5cc(F)c([C@H]6CCC(=O)NC6=O)c(F)c5)CC4)CC3)CC2)c(CC)cc1Nc1ncc(Br)c(Nc2ccc3c(=O)n(CC)ncc3c2P(C)(C)=O)n1` [Example 639, (R)-3-(4-(4-(2-(4-(1-(4-((5-bromo-4-((5-(dimethylphosphoryl)-2-ethyl-1-oxo-1,2-dihydrophthalazin-6-yl)amino)pyrimidin-2-yl)amino)-5-ethoxy-2-ethylphenyl)piperidin-4-yl)piperazin-1-yl)-2-oxoethyl)piperazin-1-yl)-2,6-difluorophenyl)piperidine-2,6-dione], the DC50 is 4.06 nM in assay [1] (setting [3]) and 0.71 nM in assay [2] (setting [5]). The Dmax in assay [1] (setting [4]) amounted to 94.3%. Moreover, the “Dmax (%) H1975 # 28 DTC” value in assay [2] (setting [6]) amounted to 86.93%.
`CCOc1cc(N2CCC(N3CCN(CCC4CCN(c5cc(F)c6c(c5)n(CC)c(=O)n6C5CCC(=O)NC5=O)CC4)CC3)CC2)c(CC)cc1Nc1ncc(Br)c(Nc2ccc3c(=O)n(CC)ncc3c2P(C)(C)=O)n1` (stereo not shown) [Example 640, 3-(5-(4-(2-(4-(1-(4-((5-bromo-4-((5-(dimethylphosphoryl)-2-ethyl-1-oxo-1,2-dihydrophthalazin-6-yl)amino)pyrimidin-2-yl)amino)-5-ethoxy-2-ethylphenyl)piperidin-4-yl)piperazin-1-yl)ethyl)piperidin-1-yl)-3-ethyl-7-fluoro-2-oxo-2,3-dihydro-1H-benzo[d]imidazol-1-yl)piperidine-2,6-dione]: the DC50 in assay [1] (setting [3]) was found to be 17.9 nM; in assay [2] (setting [5]), 3.09 nM. Moreover, in assay [1] (setting [4]), the Dmax amounted to 87.2%. Besides, in assay [2] (setting [6]), the “Dmax (%) H1975 # 28 DTC” value was 85.38%.
The matching figures for `CCOc1cc(N2CCC(N3CCN(CCc4cccc5c4C(C)(C)C(=O)N5C4CCC(=O)NC4=O)[C@H](CO)C3)CC2)c(CC)cc1Nc1ncc(Br)c(Nc2ccc3c(=O)n(CC)ncc3c2P(C)(C)=O)n1` (stereo partly drawn) [Example 641, 3-(4-(2-((S)-4-(1-(4-((5-bromo-4-((5-(dimethylphosphoryl)-2-ethyl-1-oxo-1,2-dihydrophthalazin-6-yl)amino)pyrimidin-2-yl)amino)-5-ethoxy-2-ethylphenyl)piperidin-4-yl)-2-(hydroxymethyl)piperazin-1-yl)ethyl)-3,3-dimethyl-2-oxoindolin-1-yl)piperidine-2,6-dione]: 7.79 nM, 0.666 nM, 96.1% and 76.33%.
Regarding `CCc1cc(Nc2ncc(Br)c(Nc3ccc4nc(C)ccc4c3P(C)(C)=O)n2)c(OC2CC2)cc1N1CCC(N2CCN(CCc3cccc4c3n(C)c(=O)n4C3CCC(=O)NC3=O)CC2)CC1` (stereo not shown) [Example 642, 3-(4-(2-(4-(1-(4-((5-bromo-4-((5-(dimethylphosphoryl)-2-methylquinolin-6-yl)amino)pyrimidin-2-yl)amino)-5-cyclopropoxy-2-ethylphenyl)piperidin-4-yl)piperazin-1-yl)ethyl)-3-methyl-2-oxo-2,3-dihydro-1H-benzo[d]imidazol-1-yl)piperidine-2,6-dione], the DC50 in assay [1] (setting [3]) stood at 1.42 nM; in assay [2] (setting [5]), 0.617 nM. Moreover, the Dmax in assay [1] (setting [4]) came out at 93.7%. Further, the “Dmax (%) H1975 # 28 DTC” value in assay [2] (setting [6]) stood at 76.78%.
As for `CCOc1cc(N2CCC(N3CCN(CCc4cccc5c4oc(=O)n5C4CCC(=O)NC4=O)CC3)CC2)c(CC)cc1Nc1ncc(Br)c(Nc2ccc3c(=O)n(CC)ncc3c2P(C)(C)=O)n1` (stereo not shown) [Example 644, 3-(7-(2-(4-(1-(4-((5-bromo-4-((5-(dimethylphosphoryl)-2-ethyl-1-oxo-1,2-dihydrophthalazin-6-yl)amino)pyrimidin-2-yl)amino)-5-ethoxy-2-ethylphenyl)piperidin-4-yl)piperazin-1-yl)ethyl)-2-oxobenzo[d]oxazol-3(2H)-yl)piperidine-2,6-dione], the figures for the DC50 in assay [1] (setting [3]) and in assay [2] (setting [5]) were 5.12 nM and 0.829 nM, respectively. The Dmax in assay [1] (setting [4]) was 92.6%. In assay [2] (setting [6]), the “Dmax (%) H1975 # 28 DTC” value was found to be 86.29%.
For the compound `CCOc1cc(N2CCC(N3CCN(CC4CN(c5cccc6c5oc(=O)n6C5CCC(=O)NC5=O)C4)CC3)CC2)c(CC)cc1Nc1ncc(Br)c(Nc2ccc3c(=O)n(CC)ncc3c2P(C)(C)=O)n1` (stereo not shown) [Example 645, 3-(7-(3-((4-(1-(4-((5-bromo-4-((5-(dimethylphosphoryl)-2-ethyl-1-oxo-1,2-dihydrophthalazin-6-yl)amino)pyrimidin-2-yl)amino)-5-ethoxy-2-ethylphenyl)piperidin-4-yl)piperazin-1-yl)methyl)azetidin-1-yl)-2-oxobenzo[d]oxazol-3(2H)-yl)piperidine-2,6-dione], the DC50 is 22.7 nM in assay [1] (setting [3]) and 6.2 nM in assay [2] (setting [5]). In assay [1] (setting [4]), the Dmax turned out to be 95.8%. The “Dmax (%) H1975 # 28 DTC” value in assay [2] (setting [6]) is 84.26%.
`CCc1ncc2c(P(C)(C)=O)c(Nc3nc(Nc4cc(CC)c(N5CCC(N6CCN(C(=O)Cc7ccc8c(c7)oc(=O)n8C7CCC(=O)NC7=O)CC6)CC5)cc4OC)ncc3Br)ccc2n1` (stereo not shown) [Example 646, 3-(6-(2-(4-(1-(4-((5-bromo-4-((5-(dimethylphosphoryl)-2-ethylquinazolin-6-yl)amino)pyrimidin-2-yl)amino)-2-ethyl-5-methoxyphenyl)piperidin-4-yl)piperazin-1-yl)-2-oxoethyl)-2-oxobenzo[d]oxazol-3(2H)-yl)piperidine-2,6-dione]: the DC50 in assay [1] (read-out: DC50(nM) BaF3-LTC; BaF3-LTC cells; EGFR degradation, IC50 (DC50) from curve fit) turned out to be 6.2 nM; in assay [2] (read-out: DC50(nM) H1975 # 28 DTC; H1975 # 28 DTC cells; EGFR degradation, IC50 (DC50) from curve fit), 0.627 nM. Also, the Dmax in assay [1] (read-out: Dmax (%) BaF3-LTC, BaF3-LTC cells; maximum percentage of inhibition (degradation)) was 94.5%. Besides, in assay [2] (setting [6]), the “Dmax (%) H1975 # 28 DTC” value is given as 74.64%.
Regarding `CCOc1cc(N2CCC(N3CCN(CCc4c(F)ccc5c4C(C)(C)C(=O)N5C4CCC(=O)NC4=O)CC3)CC2)c(CC)cc1Nc1ncc(Br)c(Nc2ccc3nc(CC)ccc3c2P(C)(C)=O)n1` (stereo not shown) [Example 647, 3-(4-(2-(4-(1-(4-((5-bromo-4-((5-(dimethylphosphoryl)-2-ethylquinolin-6-yl)amino)pyrimidin-2-yl)amino)-5-ethoxy-2-ethylphenyl)piperidin-4-yl)piperazin-1-yl)ethyl)-5-fluoro-3,3-dimethyl-2-oxoindolin-1-yl)piperidine-2,6-dione], the DC50 in assay [1] (setting [3]) was 13.2 nM; in assay [2] (setting [5]), 2 nM. For the same compound, the maximal degradation (Dmax) in assay [1] (setting [4]) turned out to be 93.2%. Further, in assay [2] (setting [6]), the “Dmax (%) H1975 # 28 DTC” value stood at 66.66%.
